Results published in ChEMBL document CHEMBL3407379, “Novel sesquiterpenes from Schisandra grandiflora: isolation, cytotoxic activity and synthesis of their triazole derivatives using "click" reaction” (Eur J Med Chem, 2015).

Experiments:
HeLa = test: Cytotoxicity against human HeLa cells assessed as cell viability after 48 hrs by MTT assay; type: functional, cell-based
A549 = test: Cytotoxicity against human A549 cells assessed as cell viability after 48 hrs by MTT assay; type: functional, cell-based; conditions: A549, 48 h
DU-145 = test: Cytotoxicity against human DU145 cells assessed as cell viability after 48 hrs by MTT assay; type: functional, cell-based; conditions: DU-145, 48 h
MCF7 = test: Cytotoxicity against human MCF7 cells assessed as cell viability after 48 hrs by MTT assay; type: functional, cell-based; conditions: MCF7, 48 h
B16 = test: Cytotoxicity against mouse B16 cells assessed as cell viability after 48 hrs by MTT assay; type: functional, cell-based; conditions: B16, 48 h
HEK293 = test: Cytotoxicity against HEK293 cells assessed as cell viability after 48 hrs by MTT assay; type: cell-based; conditions: Homo sapiens, HEK293, 48 h

| Structure (SMILES) | IC50 (HeLa) [µM] | IC50 (A549) [µM] | IC50 (DU-145) [µM] | IC50 (MCF7) [µM] | IC50 (B16) [µM] | IC50 (HEK293) [µM] |
| --- | --- | --- | --- | --- | --- | --- |
| C=C1CCC[C@]2(C)CCC(c3cn(-c4cccc(OC)c4)nn3)=CC[C@@]12C | 27.9 | 11.2 | 38.9 | 56.2 | 34.6 | 734 |
| C=C1CC[C@@H](C(C)C)[C@]12CC=C(C=O)CC2 | 269 | 170 | 165 | 210 | 428 | 550 |
| C=C1CCC[C@]2(C)CCC(c3cn(-c4ccc(C(C)=O)cc4)nn3)=CC[C@@]12C | 15.1 | 46.4 | 51.7 | 65.4 | 61 | 520 |
| CC1(C)CCCC2=CC=C(C=O)CC[C@]21C | 163 | 138 | 191 | 166 | 145 | 696 |
| C=C1CCC[C@]2(C)CCC(c3cn(-c4ccc(C)cc4)nn3)=CC[C@@]12C | 69.1 | 58.8 | 132 | 54.9 | 57.6 | 524 |
| C=C1CCC[C@]2(C)CCC(c3cn(-c4cc(OC)c(OC)cc4OC)nn3)=CC[C@@]12C | 45 | 32.6 | 49.4 | 41.1 | 47.2 | 334 |
| C=C1CCC[C@]2(C)CCC(c3cn(-c4ccc(I)cc4)nn3)=CC[C@@]12C | 144 | 137 | 145 | 162 | 144 | 215 |
| C=C1CCC[C@]2(C)CCC(C=O)=CC[C@@]12C | 190 | 145 | 152 | 319 | 230 | 734 |
| C=C1CCC[C@]2(C)CCC(c3cn(-c4cccc([N+](=O)[O-])c4)nn3)=CC[C@@]12C | 31.9 | 24.7 | 62.5 | 40.3 | 31.7 | 699 |
| C=C1CCC[C@]2(C)CCC(c3cn(-c4ccc(Cl)cc4)nn3)=CC[C@@]12C | 18.8 | 20.1 | 26 | 35.1 | 27.2 | 609 |
| C=C1CC[C@@H](C(C)C)[C@]12CC=C(c1cn(CC(=O)Nc3ccc(C)cc3)nn1)CC2 | 54.1 | 31.7 | 44.5 | 142 | 195 | 303 |
| C=C1CCC[C@]2(C)CCC(c3cn(CC(=O)Nc4ccccc4)nn3)=CC[C@@]12C | 62.9 | 72.2 | 146 | 148 | 148 | 491 |
| C=C1CCC[C@]2(C)CCC(c3cn(-c4ccc(OC)cc4)nn3)=CC[C@@]12C | 43.6 | 34.6 | 58.9 | 118 | 209 | 410 |
| C=C1CCC[C@]2(C)CCC(c3cn(-c4ccccc4C(C)=O)nn3)=CC[C@@]12C | 55.7 | 37.6 | 48.5 | 29.9 | 42.2 | 524 |
| C=C1CC[C@@H](C(C)C)[C@]12CC=C(c1cn(-c3cc(OC)c(OC)cc3OC)nn1)CC2 | 37.4 | 20.5 | 29.7 | 44 | 29.1 | 509 |
| C#CC1=CC[C@@]2(C)C(=C)CCC[C@]2(C)CC1 | 158 | 148 | 386 | 575 | 507 | 524 |
| C=C1CC[C@@H](C(C)C)[C@]12CC=C(c1cn(-c3ccc(OC)cc3)nn1)CC2 | 54.9 | 43.6 | 65.1 | 63.1 | 107 | 388 |
| C=C1CCC[C@]2(C)CCC(c3cn(CC(=O)Nc4ccc(C)cc4)nn3)=CC[C@@]12C | 131 | 270 | 254 | 80.1 | 210 | 622 |
| CC1(C)CCC[C@]1(C)c1ccc(C=O)cc1 | 252 | 216 | 260 | 202 | 257 | 771 |
| COc1cccc2c1C(=O)c1c(O)c3c(c(O)c1C2=O)C[C@@](O)(C(=O)CO)C[C@@H]3O[C@H]1C[C@H](N)[C@H](O)[C@H](C)O1 [DOXORUBICIN] | 3.57 |  | 5.3 | 2.24 | 2.78 |  |
| C#CC1=CC[C@]2(CC1)C(=C)CC[C@H]2C(C)C | 97.6 | 103 | 121 | 135 | 123 | 740 |
| CC1(C)CCCC23C=C[C@](C)(CC[C@@]12C)OO3 | 122 | 94.8 | 114 | 129 | 343 | 480 |
